According to patent US4288595A, “7-(Substituted)-7H-pyrrolo[3,2-f]quinazoline-1,3-diamines” (priority 1980, dated 1981):
Converted amounts (≈) assume the structure as drawn.

tested on: Plasmodium berghei KBG 173; assay: Blood schizonticidal antimalarial test in mice infected with Plasmodium berghei; conditions: Plasmodium berghei, in Mus musculus, sc, 336 h, read-out: Lowest Dose Curing All Mice
Method: (§1) Test animals weigh from 18 to 22 grams but weight variations in any given experimental or control group are confined to 2-3 grams. All animals in any given test are approximately of the same age. Animals on test are housed in metal-topped plastic cages, given a standard laboratory diet and water ad libitum.
(§2) Test animals receive an intraperitoneal injection of 0.5 ml. of 1:100 dilution of heparinized heart's blood with a minimum of 90% parasitized cells (4×10^7 cells), drawn from donor mice infected one week earlier with Plasmodium berghei. The donor strain is maintained by weekly passages in separate groups of mice inoculated with a 0.5 ml. of 1:500 dilution of heparinized heart's blood.
(§3) Test compounds are administered after dissolution or suspension in peanut oil. A single dose is given subcutaneously 72 hours after the mice are infected with Plasmodium berghei. […] Since treatment is withheld for three days to permit the infection to become well established and death occurs in untreated controls within 6-8 days, it is felt that this system presents a candidate compound with the maximum challenge. In order to check factors such as changes in the infectivity of Plasmodium berghei or in the susceptibility of the host or to detect technical errors, a group of infected animals treated with pyrimethamine at dose levels producing definite increases in survival time is included in a positive control in every experiment.
(§4) In each experiment test compounds are administered in graded dosages. […] Deaths prior to the sixth day, when untreated controls begin to die, are regarded as nonparasitic and become the basis for toxicity evaluations. Treated animals are kept under observation for 60 days. Survivors at the end of this period of time are considered as cured. In calculating mean survival time, toxic deaths and 60-day survivors are not included.

SMILES | ED100
Nc1nc(N)c2c(ccc3c2ccn3S(=O)(=O)c2ccc(Cl)c(Cl)c2)n1 [Example 7] | 10 mg/kg
Nc1nc(N)c2c(ccc3c2ccn3S(=O)(=O)c2ccc(Cl)cc2)n1 [Example 8] | 40 mg/kg

same assay, conditions: Plasmodium berghei, in Mus musculus, sc, 336 h, read-out: Min. Curing Dose

SMILES | minimal effective dose
Nc1nc(N)c2c(ccc3c2ccn3S(=O)(=O)c2ccc(Cl)c(Cl)c2)n1 [Example 7] | 1.25 mg/kg
Nc1nc(N)c2c(ccc3c2ccn3S(=O)(=O)c2ccc(Cl)cc2)n1 [Example 8] | 40 mg/kg

same assay, conditions: Plasmodium berghei, in Mus musculus, sc, 1440 h, read-out: Lowest Dose Curing All Mice

SMILES | ED100
Cc1ccc(C)c(S(=O)(=O)n2ccc3c4c(N)nc(N)nc4ccc32)c1 [Example 2, 7-[(2,5-Dimethylphenyl)Sulfonyl]-7H-Pyrrolo-[3,2-f]Quinazoline-1,3-Diamine] | 40 mg/kg
Cc1ccc(S(=O)(=O)n2ccc3c4c(N)nc(N)nc4ccc32)cc1 [Example 5] | 80 mg/kg
COc1ccc(S(=O)(=O)n2ccc3c4c(N)nc(N)nc4ccc32)cc1 [Example 6] | 160 mg/kg

same assay, conditions: Plasmodium berghei, in Mus musculus, sc, 1440 h, read-out: Min. Curing Dose

SMILES | minimal effective dose
Cc1ccc(C)c(S(=O)(=O)n2ccc3c4c(N)nc(N)nc4ccc32)c1 [Example 2, 7-[(2,5-Dimethylphenyl)Sulfonyl]-7H-Pyrrolo-[3,2-f]Quinazoline-1,3-Diamine] | 20 mg/kg
Cc1ccc(S(=O)(=O)n2ccc3c4c(N)nc(N)nc4ccc32)cc1 [Example 5] | 20 mg/kg
COc1ccc(S(=O)(=O)n2ccc3c4c(N)nc(N)nc4ccc32)cc1 [Example 6] | 40 mg/kg

same assay, conditions: dose 5 mg. per kg., s.c.

SMILES | ΔMST (increase in mean survival time of treated animals to untreated controls)
Cc1ccc(C)c(S(=O)(=O)n2ccc3c4c(N)nc(N)nc4ccc32)c1 [Example 2, 7-[(2,5-Dimethylphenyl)Sulfonyl]-7H-Pyrrolo-[3,2-f]Quinazoline-1,3-Diamine] | 6.6

same assay, conditions: dose 10 mg. per kg., s.c.

SMILES | ΔMST (increase in mean survival time of treated animals to untreated controls)
Cc1ccc(S(=O)(=O)n2ccc3c4c(N)nc(N)nc4ccc32)cc1 [Example 5] | 5.8

tested on: not listed separately; assay: as above; conditions: mouse, in vivo, sc
Method: as §1, §2, §3, §4

SMILES | MTD at 1440 h
Cc1ccc(C)c(S(=O)(=O)n2ccc3c4c(N)nc(N)nc4ccc32)c1 [Example 2, 7-[(2,5-Dimethylphenyl)Sulfonyl]-7H-Pyrrolo-[3,2-f]Quinazoline-1,3-Diamine] | 160 mg/kg
Cc1ccc(S(=O)(=O)n2ccc3c4c(N)nc(N)nc4ccc32)cc1 [Example 5] | 640 mg/kg
COc1ccc(S(=O)(=O)n2ccc3c4c(N)nc(N)nc4ccc32)cc1 [Example 6] | 640 mg/kg
Nc1nc(N)c2c(ccc3c2ccn3S(=O)(=O)c2ccc(Cl)c(Cl)c2)n1 [Example 7] | 640 mg/kg
Nc1nc(N)c2c(ccc3c2ccn3S(=O)(=O)c2ccc(Cl)cc2)n1 [Example 8] | 160 mg/kg

tested on: S. aureus Smith; assay: In vitro antibacterial activity, MIC by agar dilution; type: cell-based; conditions: Staphylococcus aureus; Wellcotest Sensitivity Test Agar, 5% hemolyzed horse blood, 18 hours at 35° C.
Method: (§5) A stock solution or suspension of the test compound at a concentration of 2500 μg/ml. is prepared utilizing a suitable solvent or medium such as aqueous sodium hydroxide, aqueous lactic acid, methyl cellosolve, dimethylsulfoxide, dimethylacetamide, ethylene glycol, dimethylformamide, formamide, propylene glycol, acetone or methanol. Two-fold dilutions are made by adding appropriate amounts of sterile water to the solution or suspension of the test substance. One ml. quantities of each dilution are incorporated into Wellcotest Sensitivity Test Agar fortified with 5% hemolyzed horse blood (9 ml. vol.) in sterile Petri dishes to give plates containing varying concentrations of the test compound. The hardened surfaces of each plate are incubated with the test organism, and the plates are incubated for 18 hours at 35° C.

SMILES | MIC
Cc1ccc(C)c(S(=O)(=O)n2ccc3c4c(N)nc(N)nc4ccc32)c1 [Example 2, 7-[(2,5-Dimethylphenyl)Sulfonyl]-7H-Pyrrolo-[3,2-f]Quinazoline-1,3-Diamine] | 7.81 µg/mL (≈ 21.3 µM)
Cc1ccc(S(=O)(=O)n2ccc3c4c(N)nc(N)nc4ccc32)cc1 [Example 5] | 125 µg/mL (≈ 354 µM)
COc1ccc(S(=O)(=O)n2ccc3c4c(N)nc(N)nc4ccc32)cc1 [Example 6] | 15.6 µg/mL (≈ 42.2 µM)
Nc1nc(N)c2c(ccc3c2ccn3S(=O)(=O)c2ccc(Cl)c(Cl)c2)n1 [Example 7] | 31.3 µg/mL (≈ 76.7 µM)
Nc1nc(N)c2c(ccc3c2ccn3S(=O)(=O)c2ccc(Cl)cc2)n1 [Example 8] | 62.5 µg/mL (≈ 167 µM)

tested on: N. catarrhalis 8193; assay: as above; type: cell-based; conditions: Wellcotest Sensitivity Test Agar, 5% hemolyzed horse blood, 18 hours at 35° C.
Method: as §5

SMILES | MIC
Cc1ccc(S(=O)(=O)n2ccc3c4c(N)nc(N)nc4ccc32)cc1 [Example 5] | 1.95 µg/mL (≈ 5.52 µM)
COc1ccc(S(=O)(=O)n2ccc3c4c(N)nc(N)nc4ccc32)cc1 [Example 6] | 0.122 µg/mL (≈ 0.33 µM)
Nc1nc(N)c2c(ccc3c2ccn3S(=O)(=O)c2ccc(Cl)c(Cl)c2)n1 [Example 7] | 0.122 µg/mL (≈ 0.299 µM)
Nc1nc(N)c2c(ccc3c2ccn3S(=O)(=O)c2ccc(Cl)cc2)n1 [Example 8] | 0.244 µg/mL (≈ 0.653 µM)

tested on: S. aureus 53-180; assay: as above; type: cell-based; conditions: Staphylococcus aureus, 53180; Wellcotest Sensitivity Test Agar, 5% hemolyzed horse blood, 18 hours at 35° C.
Method: as §5

SMILES | MIC
Cc1ccc(C)c(S(=O)(=O)n2ccc3c4c(N)nc(N)nc4ccc32)c1 [Example 2, 7-[(2,5-Dimethylphenyl)Sulfonyl]-7H-Pyrrolo-[3,2-f]Quinazoline-1,3-Diamine] | 0.976 µg/mL (≈ 2.66 µM)
Cc1ccc(S(=O)(=O)n2ccc3c4c(N)nc(N)nc4ccc32)cc1 [Example 5] | 62.5 µg/mL (≈ 177 µM)
COc1ccc(S(=O)(=O)n2ccc3c4c(N)nc(N)nc4ccc32)cc1 [Example 6] | 7.81 µg/mL (≈ 21.1 µM)
Nc1nc(N)c2c(ccc3c2ccn3S(=O)(=O)c2ccc(Cl)c(Cl)c2)n1 [Example 7] | 3.9 µg/mL (≈ 9.55 µM)
Nc1nc(N)c2c(ccc3c2ccn3S(=O)(=O)c2ccc(Cl)cc2)n1 [Example 8] | 15.6 µg/mL (≈ 41.7 µM)

tested on: P. vulgaris 6896; assay: as above; type: cell-based; conditions: Proteus vulgaris, Wellcotest Sensitivity Test Agar, 5% hemolyzed horse blood, 18 hours at 35° C.
Method: as §5

SMILES | MIC
Cc1ccc(C)c(S(=O)(=O)n2ccc3c4c(N)nc(N)nc4ccc32)c1 [Example 2, 7-[(2,5-Dimethylphenyl)Sulfonyl]-7H-Pyrrolo-[3,2-f]Quinazoline-1,3-Diamine] | 62.5 µg/mL (≈ 170 µM)
Cc1ccc(S(=O)(=O)n2ccc3c4c(N)nc(N)nc4ccc32)cc1 [Example 5] | > 250 µg/mL
COc1ccc(S(=O)(=O)n2ccc3c4c(N)nc(N)nc4ccc32)cc1 [Example 6] | > 250 µg/mL
Nc1nc(N)c2c(ccc3c2ccn3S(=O)(=O)c2ccc(Cl)c(Cl)c2)n1 [Example 7] | > 250 µg/mL
Nc1nc(N)c2c(ccc3c2ccn3S(=O)(=O)c2ccc(Cl)cc2)n1 [Example 8] | > 250 µg/mL

tested on: S. paratyphi 11737; assay: as above; type: cell-based; conditions: Salmonella enterica, 18 h, read-out: MIC, S. paratyphi 11737
Method: as §5

SMILES | MIC
Nc1nc(N)c2c(ccc3c2ccn3S(=O)(=O)c2ccc(Cl)c(Cl)c2)n1 [Example 7] | > 250 µg/mL

same assay, conditions: Salmonella enterica, Wellcotest Sensitivity Test Agar, 5% hemolyzed horse blood, 18 hours at 35° C., read-out: MIC, S. paratyphi 11737

SMILES | MIC
Cc1ccc(C)c(S(=O)(=O)n2ccc3c4c(N)nc(N)nc4ccc32)c1 [Example 2, 7-[(2,5-Dimethylphenyl)Sulfonyl]-7H-Pyrrolo-[3,2-f]Quinazoline-1,3-Diamine] | 31.3 µg/mL (≈ 85.2 µM)
Cc1ccc(S(=O)(=O)n2ccc3c4c(N)nc(N)nc4ccc32)cc1 [Example 5] | > 250 µg/mL
COc1ccc(S(=O)(=O)n2ccc3c4c(N)nc(N)nc4ccc32)cc1 [Example 6] | > 250 µg/mL
Nc1nc(N)c2c(ccc3c2ccn3S(=O)(=O)c2ccc(Cl)cc2)n1 [Example 8] | > 250 µg/mL

tested on: E. coli 9637; assay: as above; type: cell-based; conditions: Escherichia coli, 9637, 18 h, read-out: MIC, E. coli 9637
Method: as §5

SMILES | MIC
Cc1ccc(C)c(S(=O)(=O)n2ccc3c4c(N)nc(N)nc4ccc32)c1 [Example 2, 7-[(2,5-Dimethylphenyl)Sulfonyl]-7H-Pyrrolo-[3,2-f]Quinazoline-1,3-Diamine] | 31.3 µg/mL (≈ 85.2 µM)

same assay, conditions: Escherichia coli, 9637; Wellcotest Sensitivity Test Agar, 5% hemolyzed horse blood, 18 hours at 35° C.; read-out: MIC, E. coli 9637

SMILES | MIC
Cc1ccc(S(=O)(=O)n2ccc3c4c(N)nc(N)nc4ccc32)cc1 [Example 5] | > 250 µg/mL
COc1ccc(S(=O)(=O)n2ccc3c4c(N)nc(N)nc4ccc32)cc1 [Example 6] | > 250 µg/mL
Nc1nc(N)c2c(ccc3c2ccn3S(=O)(=O)c2ccc(Cl)c(Cl)c2)n1 [Example 7] | > 250 µg/mL
Nc1nc(N)c2c(ccc3c2ccn3S(=O)(=O)c2ccc(Cl)cc2)n1 [Example 8] | > 250 µg/mL

tested on: K. pneumoniae 10031; assay: as above; type: cell-based; conditions: Klebsiella pneumoniae, 10031, 18 h, read-out: MIC, K. pneumoniae 10031
Method: as §5

SMILES | MIC
Cc1ccc(C)c(S(=O)(=O)n2ccc3c4c(N)nc(N)nc4ccc32)c1 [Example 2, 7-[(2,5-Dimethylphenyl)Sulfonyl]-7H-Pyrrolo-[3,2-f]Quinazoline-1,3-Diamine] | 31.3 µg/mL (≈ 85.2 µM)

same assay, conditions: Klebsiella pneumoniae, 10031; Wellcotest Sensitivity Test Agar, 5% hemolyzed horse blood, 18 hours at 35° C.; read-out: MIC, K. pneumoniae 10031

SMILES | MIC
Cc1ccc(S(=O)(=O)n2ccc3c4c(N)nc(N)nc4ccc32)cc1 [Example 5] | 15.6 µg/mL (≈ 44.1 µM)
COc1ccc(S(=O)(=O)n2ccc3c4c(N)nc(N)nc4ccc32)cc1 [Example 6] | 3.9 µg/mL (≈ 10.6 µM)
Nc1nc(N)c2c(ccc3c2ccn3S(=O)(=O)c2ccc(Cl)c(Cl)c2)n1 [Example 7] | 3.13 µg/mL (≈ 7.67 µM)
Nc1nc(N)c2c(ccc3c2ccn3S(=O)(=O)c2ccc(Cl)cc2)n1 [Example 8] | 7.81 µg/mL (≈ 20.9 µM)
